Data from patent US20250360155A1, “METHOD OF TREATING SPINAL CORD INJURY AND COMPOSITION FOR USE THEREIN” (ACADEMIA SINICA, priority 2022, published 2025).

What was measured:
C57BL/6J mice with SCI [1] = test: Western blot of spinal cord (T9-T11) after spinal cord contusion; format: in vivo, mouse; settings: J4 10 mg/kg twice a day
Experimental: (§1) Mice were anesthetized by intramuscular injection of Zoletil® (50 mg/kg; tiletamine hydrochloride and zolazepam hydrochloride) and Rompun® (12 mg/kg; xylazine hydrochloride) before the surgery. After laminectomy on the T9-T10 vertebral column, the spinal cord was exposed and contused by a 10 g rod with an impact head of 1.2 mm diameter at the height of 6.25 mm above the T10 spinal cord to allow it to drop using an Impactor model-II spinal cord contusion system (RWD6809911) to cause the contusion injury. In the sham group, surgery procedures were identical except for the spinal contusion. After the injury, the wound was quickly sutured using 4.0 silk thread (Unik Taiwan; New Taipei city, Taiwan). The bladders of mice were manually and gently massaged once a day to avoid retention of urine until the reflexive control of micturition was restored. Cefazolin (300 mg/kg) was given for consecutive three days after surgery to prevent infection. Fourteen days after the surgery, mice were sacrificed for analyses.
(§2) In one example for the treatment of J4, which can be used as an ENT1 inhibitor, male C57BL/6J mice (8-12 weeks old) were divided into three groups: the sham group, the SCI+J4 group and the SCI+vehicle group. Please refer to FIG. 1. In the J4 group, mice were pretreated with 10 mg/kg J4 twice a day for three days before the injury. Following the SCI, J4 (10 mg/kg) was administered to mice twice a day for consecutive 14 days. In vehicle group, mice were treated with 5% DMSO, instead of J4, following the same protocol of the J4-treated group. The sham group received the same treatment as the vehicle group. All mice were maintained on a 12 h light/dark schedule and given food and water ad libitum in the Laboratory Animal Center (an AAALAC accredited experimental animal facility) at National Taiwan University. Procedures involving animals were conducted according to the ARRIVE (Animal Research: Reporting In Vivo Experiments) guidelines.
The protein concentrations of the samples were determined by the Bio-Rad DC Protein Assay Kit (Bio-rad, Hercules, CA, USA). Protein samples (10 μg each) were diluted with loading buffer (200 mM Tris-HCl, 1.43% 2-mercaptoethanol, 0.4% bromophenol blue, and 40% glycerol) and heated at 98° C. The protein samples were then separated with 90 V for 10 minutes, followed by 130 V for 60 minutes on 12% SDS-polyacrylamide gel (for S100a10, c-caspase3 and GAPDH) or 8% SDS-polyacrylamide gel (for C3, NeuN) in running buffer (0.3% Tris base, 1.88% glycine, and 0.1% SDS). After electrophoresis, the gel was transferred onto a nitrocellulose membrane in transfer buffer (0.3% Tris base, 1.88% glycine, and 20% methanol; pH 8.3) with 300 mA for 90 minutes. Nonspecific binding to membrane was blocked by BlockPRO™ 1 Min Protein Free Blocking Buffer (Neihu, Taipei City, Taiwan) at room temperature on shaker at 25 rpm. […] Bound antibodies were detected using Chemiluminescence reagent Plus (PerkinElmer Life Sciences, MA, USA) and Bio-rad ChemiDoc™ XRS+ Systems and Image Lab™ Software to obtain images under appropriate exposure time.

C57BL/6J mice with SCI [2] = test: Nissl staining of spinal cord lesion after spinal cord contusion; format: in vivo, mouse; settings: vs vehicle
Experimental: as §1
(§3) In one example for the treatment of J4, which can be used as an ENT1 inhibitor, male C57BL/6J mice (8-12 weeks old) were divided into three groups: the sham group, the SCI+J4 group and the SCI+vehicle group. Please refer to FIG. 1. In the J4 group, mice were pretreated with 10 mg/kg J4 twice a day for three days before the injury. […]

C57BL/6J mice with SCI [3] = test: Immunofluorescence staining of spinal cord perilesional area after spinal cord contusion; format: in vivo, mouse
Experimental: as §1, §2
(§4) In another example for the treatment of JMF 1907 (i.e. the compound of formula (III)), male C57BL/6J mice (8-12 weeks old) were divided into three groups: the JMF1907 group, the methylprednisolone (MPSS) group and the vehicle group. Wherein, JMF1907 (10 mg/kg twice daily for 14 days), methylprednisolone (30 mg/kg 10 min after crush, then at 2, 4, and 6 h after crush), or vehicle (0.5% DMSO, twice daily for 14 days) was administered to said mice.
After being anesthetized by Zoletil® (50 mg/kg) and Rompun® (12 mg/kg), mice were intracardially perfused with ice-cold normal saline. The spinal cord (T9-T11) was removed and soaked in ice-cold 4% paraformaldehyde. The vertebrae were then placed in cassettes for paraffin embedding. The samples were cut into sagittal section of 4 μm and placed in water bath at 42° C. The section was mounted onto slides and stored at room temperature until analysis. After deparaffinization, tissue retrieval was conducted in sodium citrate buffer (pH=6) at 90° C. and the spinal cord slices were then washed with phosphate-buffered saline (PBS). Sections were incubated in antibody dilution buffer (Roche, Basel, Swiss) at room temperature. The slides were immunostained by the following primary antibodies: chicken anti-neuronal nuclear protein (NeuN) (1:2000; Merck-Millipore, Dramstadt, Germany), rabbit anti-ionized calcium-binding adapter molecule-1 (Iba-1) (1:1000; Abcam, Cambridge, MA, USA), or mouse anti-glial fibrillary acidic protein (Gfap) (1:1000; cell signaling, Danvers, Massachusetts, USA) overnight at 4° C. Corresponding secondary antibodies conjugated with Alexa Fluor 488 or Rhodamine (Jackson Immuno Research Laboratories, West Grove, PA, USA) were applied for the visualization of immunolabelling. After being washed with PBST (Phosphate Buffered Saline with Tween® 20) and PBS, the slices were mounted on a mounting gel (DAPI Fluoromount G; Southern Biotech Birmingham, Alabama, USA). Images were acquired by a Zeiss AXIO Imager M1 microscope (Carl Zeiss, Gottingen, Germany). […]

C57BL/6J mice with SCI [4] = test: Behavioral tests (Basso Mouse Scale, footprint analysis) after spinal cord contusion; format: in vivo; settings: vs vehicle
Experimental: as §1, §2, §4
The motor function after SCI was evaluated from day 3 to day 14 after the surgery by locomotor open-field rating scale on the Basso Mouse Scale (BMS).^6 Scoring ranged from 0 for complete paraplegia to 9 for normal function. The footprint analysis was assessed on day 14 after the surgery. The hindlimbs of the mice were dipped in red and black dye for left and right foot, respectively. […]

C57BL/6J mice with SCI [5] = test: RT-qPCR of inflammatory cytokines in spinal cord after spinal cord contusion; format: in vivo, mouse; settings: J4 10 mg/kg twice a day; perilesional area, 14 days post-injury; vs vehicle
Experimental: as §1
as §3, with “injury. Following the SCI, J4 (10 mg/kg) was administered to mice twice a day for consecutive 14 days.” for “injury.”
Mice were anesthetized by the inhalation of isoflurane. […] Total RNA isolation, quality check, cDNA synthesis and SYBR green based quantitative real-time PCR assay were performed as described previously.^7 The forward/reverse primer sequences for IL-1β, IL-6, TNF-α, and GAPDH were listed in Table 1. The relative expression of target genes normalized to that of glyceraldehyde 3-phosphate dehydrogenase (GAPDH) was calculated by the comparative Ct (ΔCt) and was expressed as 2−ΔCt. The relative quantity was determined by the formula: 2−ΔΔCt, in which ΔΔCt values were obtained by subtracting the ΔCt values of mice with SCI from the sham controls.

[6] = JMF1907 10 mg/kg twice daily for 14 days
[7] = JMF1907 10 mg/kg twice daily for 14 days, vs vehicle

**Q.** Which “protein level of c-caspase3” value (C57BL/6J mice with SCI [1]; 14 DPI, vs vehicle) does the source give for `OC[C@H]1O[C@@H](n2cnc3c(NCc4ccc(Br)s4)ncnc32)[C@H](O)[C@@H]1O` [J4, N^6-[(5-bromothien-2-yl)methyl]adenosine] here?
**A.** decreased

**Q.** What about the “protein level of NeuN” value (C57BL/6J mice with SCI [1]; 14 DPI, vs vehicle group) of the same compound?
**A.** higher

**Q.** What about the TGF-β protein (C57BL/6J mice with SCI [1]; vs vehicle) of the same compound?
**A.** significantly increased

**Q.** And the “protein level of C3 (A1 astrocyte marker)” value (C57BL/6J mice with SCI [1]; vs vehicle)?
**A.** significantly decreased

**Q.** What about the “protein level of S100a10 (A2 astrocyte marker)” value (C57BL/6J mice with SCI [1]; vs vehicle) of the same compound?
**A.** increased

**Q.** And the “loss of spinal cord tissue (lesion volume, Nissl staining)” value (C57BL/6J mice with SCI [2]; J4 10 mg/kg twice a day, 14 days post-injury)?
**A.** significantly reduced

**Q.** And the “NeuN-positive cells in the perilesional area (immunostaining)” value (C57BL/6J mice with SCI [3]; J4 10 mg/kg twice a day, 14 DPI, vs vehicle)?
**A.** more

**Q.** And the “intensity of Iba-1-positive cells” value (C57BL/6J mice with SCI [3]; J4 10 mg/kg twice a day, perilesional area, 14 DPI, vs vehicle-treated group)?
**A.** lower

**Q.** And the “average fluorescence intensity of Gfap” value (C57BL/6J mice with SCI [3]; J4 10 mg/kg twice a day, perilesional area, 14 days post-injury, vs vehicle group)?
**A.** remarkably decreased

**Q.** What about the “stride length (footprint analysis)” value (C57BL/6J mice with SCI [4]; J4 10 mg/kg twice a day, 3 days before and 14 days after SCI, 14 DPI) of the same compound?
**A.** improved

**Q.** What about the BMS score (C57BL/6J mice with SCI [4]; J4 10 mg/kg twice a day, intraperitoneal, 3 days before injury and 14 days after SCI) of the same compound?
**A.** improved

**Q.** What about the “expression of IL-6 (mRNA)” value (C57BL/6J mice with SCI [5]) of the same compound?
**A.** trend of reduction

**Q.** What about the “expression of IL-10 (mRNA)” value (C57BL/6J mice with SCI [5]) of the same compound?
**A.** trend of reduction

**Q.** And the “expression of TNF-α (mRNA)” value (C57BL/6J mice with SCI [5])?
**A.** significantly reduced

**Q.** With `OC[C@H]1O[C@@H](n2cnc3c(NCCc4c[nH]c5ccccc45)ncnc32)[C@@H](O)C1O` (stereo partly drawn) [JMF1907] as the compound, how does the “lesion of the SCI (Nissl staining)” value (C57BL/6J mice with SCI [2]; [6]) read?
**A.** significantly reduce

**Q.** What about the “lesion of the SCI (immunofluorescence analysis, Pdgf§ expression)” value (C57BL/6J mice with SCI [3]; [7]) of the same compound?
**A.** significantly reduce

**Q.** And the “level of CD68 (marker for microglia)” value (C57BL/6J mice with SCI [3]; [7])?
**A.** significantly reduced

**Q.** What about the “level of Gfap (marker for reactive astrocytes)” value (C57BL/6J mice with SCI [3]; [7]) of the same compound?
**A.** significantly reduced

**Q.** What about the “level of Iba-1 (marker for microglia)” value (C57BL/6J mice with SCI [3]; [7]) of the same compound?
**A.** significantly reduced

**Q.** What about the “motor function (BMS score)” value (C57BL/6J mice with SCI [4]; [6]) of the same compound?
**A.** significantly improve

**Q.** And the stride length (C57BL/6J mice with SCI [4]; [6])?
**A.** significantly improve
